Laboratory results as given in US20250368649A1, “TETRAHYDROPYRIDOPYRIMIDINE PAN-KRAS INHIBITORS” (Mirati Therapeutics, Inc., priority 2022, published 2025).

Tests used:
KRas G12D = KRas G12D (Homo sapiens, UniProt P01116, G12D); test: biochemical; details: Binding to KRas (IC50 nM) G12D, TR-FRET displacement, KRas G12D
KRas G12V = KRas G12V (Homo sapiens, UniProt P01116, G12V); test: biochemical; details: Binding to KRas (IC50 nM) G12V, TR-FRET displacement, KRas G12V
KRas G12V, sequence (P01116 1-169 isoform P01116-2 G12V): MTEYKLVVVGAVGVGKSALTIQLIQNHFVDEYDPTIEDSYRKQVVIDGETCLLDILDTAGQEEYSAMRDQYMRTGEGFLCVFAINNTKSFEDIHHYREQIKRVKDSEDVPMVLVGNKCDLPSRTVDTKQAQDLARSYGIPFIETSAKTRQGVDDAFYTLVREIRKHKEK

KRas G12D, sequence (P01116 1-169 isoform P01116-2 G12D): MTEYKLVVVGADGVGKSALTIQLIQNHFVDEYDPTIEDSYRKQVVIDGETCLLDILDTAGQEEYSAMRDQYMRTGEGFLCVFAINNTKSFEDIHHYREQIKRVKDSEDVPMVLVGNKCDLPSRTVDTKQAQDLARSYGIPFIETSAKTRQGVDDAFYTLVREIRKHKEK

Compound | IC50 (KRas G12D) | IC50 (KRas G12V)
CCc1cccc2cccc(N3CCc4c(nc(OCC5(CN(C)C)CC5)nc4NCCc4nncn4C(C)C)C3)c12 [Example 571, 2-((1-((dimethylamino)methyl)cyclopropyl)methoxy)-7-(8-ethylnaphthalen-1-yl)-N-(2-(4-isopropyl-4H-1,2,4-triazol-3-yl)ethyl)-5,6,7,8-tetrahydropyrido[3,4-d]pyrimidin-4-amine] | 75700 nM | 6720 nM
CCc1cccc2cccc(N3CCc4c(nc(OCC5(CN(C)C)CC5)nc4NCCc4nnc5ccccn45)C3)c12 [Example 572, N-(2-([1,2,4]triazolo[4,3-a]pyridin-3-yl)ethyl)-2-((1-((dimethylamino)methyl)cyclopropyl)methoxy)-7-(8-ethylnaphthalen-1-yl)-5,6,7,8-tetrahydropyrido[3,4-d]pyrimidin-4-amine] | 89400 nM | 4560 nM
CCc1cccc2cccc(N3CCc4c(nc(OCC5(CN(C)C)CC5)nc4NCC4(NC(=O)OC(C)(C)C)CCOC4)C3)c12 (stereo not shown) [Example 573, tert-butyl (3-(((2-((1-((dimethylamino)methyl)cyclopropyl)methoxy)-7-(8-ethylnaphthalen-1-yl)-5,6,7,8-tetrahydropyrido[3,4-d]pyrimidin-4-yl)amino)methyl)tetrahydrofuran-3-yl)carbamate] | 96000 nM | 7840 nM
CCc1cccc2cccc(N3CCc4c(nc(OCC5(CN(C)C)CC5)nc4N4CCCOC(CC)C4)C3)c12 (stereo not shown) [Example 663, 1-(1-(((4-(2-ethyl-1,4-oxazepan-4-yl)-7-(8-ethylnaphthalen-1-yl)-5,6,7,8-tetrahydropyrido[3,4-d]pyrimidin-2-yl)oxy)methyl)cyclopropyl)-N,N-dimethylmethanamine] | 2310 nM | 1420 nM
CCc1cccc2cccc(N3CCc4c(nc(OCC5(CN(C)C)CC5)nc4N4CCOCC(C)C4)C3)c12 (stereo not shown) [Example 664, 1-(1-(((7-(8-ethylnaphthalen-1-yl)-4-(6-methyl-1,4-oxazepan-4-yl)-5,6,7,8-tetrahydropyrido[3,4-d]pyrimidin-2-yl)oxy)methyl)cyclopropyl)-N,N-dimethylmethanamine] | 254 nM | 317 nM
CCc1cccc2cccc(N3CCc4c(nc(OCC5(CN(C)C)CC5)nc4N4CCOCC(O)C4)C3)c12 (stereo not shown) [Example 666, 4-(2-((1-((dimethylamino)methyl)cyclopropyl)methoxy)-7-(8-ethylnaphthalen-1-yl)-5,6,7,8-tetrahydropyrido[3,4-d]pyrimidin-4-yl)-1,4-oxazepan-6-ol] | 340 nM | 238 nM
CCc1cccc2cccc(N3CCc4c(nc(OCC5(CN(C)C)CC5)nc4N4CCCOC(C)C4)C3)c12 (stereo not shown) [Example 667, 1-(1-(((7-(8-ethylnaphthalen-1-yl)-4-(2-methyl-1,4-oxazepan-4-yl)-5,6,7,8-tetrahydropyrido[3,4-d]pyrimidin-2-yl)oxy)methyl)cyclopropyl)-N,N-dimethylmethanamine] | 223 nM | 243 nM
CCc1cccc2cccc(N3CCc4c(nc(OCC5(CN(C)C)CC5)nc4N(C)Cc4nncn4C)C3)c12 [Example 668, 2-((1-((dimethylamino)methyl)cyclopropyl)methoxy)-7-(8-ethylnaphthalen-1-yl)-N-methyl-N-((4-methyl-4H-1,2,4-triazol-3-yl)methyl)-5,6,7,8-tetrahydropyrido[3,4-d]pyrimidin-4-amine] | 8990 nM | 2050 nM
CCc1cccc2cccc(N3CCc4c(nc(OCC5(CN(C)C)CC5)nc4N4CCCOCC4)C3)c12 [Example 669, 1-(1-(((7-(8-ethylnaphthalen-1-yl)-4-(1,4-oxazepan-4-yl)-5,6,7,8-tetrahydropyrido[3,4-d]pyrimidin-2-yl)oxy)methyl)cyclopropyl)-N,N-dimethylmethanamine] | 190 nM | 199 nM
CCc1cccc2cccc(N3CCc4c(nc(OCC5(CN(C)C)CC5)nc4N4CCOCC(CC)C4)C3)c12 (stereo not shown) [Example 672, 1-(1-(((4-(6-ethyl-1,4-oxazepan-4-yl)-7-(8-ethylnaphthalen-1-yl)-5,6,7,8-tetrahydropyrido[3,4-d]pyrimidin-2-yl)oxy)methyl)cyclopropyl)-N,N-dimethylmethanamine] | 1280 nM | 1440 nM
CCc1cccc2cccc(N3CCc4c(nc(OCC5(CN(C)C)CC5)nc4NCc4ncn(C(C)C)n4)C3)c12 [Example 673, 2-((1-((dimethylamino)methyl)cyclopropyl)methoxy)-7-(8-ethylnaphthalen-1-yl)-N-((1-isopropyl-1H-1,2,4-triazol-3-yl)methyl)-5,6,7,8-tetrahydropyrido[3,4-d]pyrimidin-4-amine] | 8420 nM | 2440 nM
CCc1cccc2cccc(N3CCc4c(nc(OCC5(CN(C)C)CC5)nc4N4CCOCC(CO)C4)C3)c12 (stereo not shown) [Example 678, (4-(2-((1-((dimethylamino)methyl)cyclopropyl)methoxy)-7-(8-ethylnaphthalen-1-yl)-5,6,7,8-tetrahydropyrido[3,4-d]pyrimidin-4-yl)-1,4-oxazepan-6-yl)methanol] | 197 nM | 210 nM
CCc1cccc2cccc(N3CCc4c(nc(OCC5(CN(C)C)CC5)nc4N4CCCC(c5c[nH]nn5)C4)C3)c12 (stereo not shown) [Example 679, 1-(1-(((4-(3-(1H-1,2,3-triazol-4-yl)piperidin-1-yl)-7-(8-ethylnaphthalen-1-yl)-5,6,7,8-tetrahydropyrido[3,4-d]pyrimidin-2-yl)oxy)methyl)cyclopropyl)-N,N-dimethylmethanamine] | 5890 nM | 3190 nM
CCc1cccc2cccc(N3CCc4c(nc(OCC5(CN(C)C)CC5)nc4N4CCCC(c5c[nH]cn5)C4)C3)c12 (stereo not shown) [Example 680, 1-(1-(((4-(3-(1H-imidazol-4-yl)piperidin-1-yl)-7-(8-ethylnaphthalen-1-yl)-5,6,7,8-tetrahydropyrido[3,4-d]pyrimidin-2-yl)oxy)methyl)cyclopropyl)-N,N-dimethylmethanamine] | 5490 nM | 3130 nM
CCc1cccc2cccc(N3CCc4c(nc(OCC5(CN(C)C)CC5)nc4N4CCCC(c5ccon5)C4)C3)c12 (stereo not shown) [Example 681, 1-(1-(((7-(8-ethylnaphthalen-1-yl)-4-(3-(isoxazol-3-yl)piperidin-1-yl)-5,6,7,8-tetrahydropyrido[3,4-d]pyrimidin-2-yl)oxy)methyl)cyclopropyl)-N,N-dimethylmethanamine] | 3830 nM | 3220 nM
CCc1cccc2cccc(N3CCc4c(nc(OCC5(CN(C)C)CC5)nc4N4CCCC(n5cccn5)C4)C3)c12 (stereo not shown) [Example 682, 1-(1-(((4-(3-(1H-pyrazol-1-yl)piperidin-1-yl)-7-(8-ethylnaphthalen-1-yl)-5,6,7,8-tetrahydropyrido[3,4-d]pyrimidin-2-yl)oxy)methyl)cyclopropyl)-N,N-dimethylmethanamine] | 1610 nM | 1760 nM
CCc1cccc2cccc(N3CCc4c(nc(OCC5(CN(C)C)CC5)nc4N4CCCC(c5ncc[nH]5)C4)C3)c12 (stereo not shown) [Example 685, 1-(1-(((4-(3-(1H-imidazol-2-yl)piperidin-1-yl)-7-(8-ethylnaphthalen-1-yl)-5,6,7,8-tetrahydropyrido[3,4-d]pyrimidin-2-yl)oxy)methyl)cyclopropyl)-N,N-dimethylmethanamine] | 1650 nM | 1860 nM
CCc1cccc2cccc(N3CCc4c(nc(OCC5(CN(C)C)CC5)nc4NCc4nnc5n4CCCCC5)C3)c12 [Example 686, 2-((1-((dimethylamino)methyl)cyclopropyl)methoxy)-7-(8-ethylnaphthalen-1-yl)-N-((6,7,8,9-tetrahydro-5H-[1,2,4]triazolo[4,3-a]azepin-3-yl)methyl)-5,6,7,8-tetrahydropyrido[3,4-d]pyrimidin-4-amine] | 5250 nM | 4520 nM
CCc1cccc2cccc(N3CCc4c(nc(OCC5(CN(C)C)CC5)nc4N4CCCC(c5nc(C)c(C)[nH]5)C4)C3)c12 (stereo not shown) [Example 687, 1-(1-(((4-(3-(4,5-dimethyl-1H-imidazol-2-yl)piperidin-1-yl)-7-(8-ethylnaphthalen-1-yl)-5,6,7,8-tetrahydropyrido[3,4-d]pyrimidin-2-yl)oxy)methyl)cyclopropyl)-N,N-dimethylmethanamine] | 10800 nM | 6230 nM
CCc1cccc2cccc(N3CCc4c(nc(OCC5(CN(C)C)CC5)nc4N4CCCC(c5ccn(C)n5)C4)C3)c12 (stereo not shown) [Example 689, 1-(1-(((7-(8-ethylnaphthalen-1-yl)-4-(3-(1-methyl-1H-pyrazol-3-yl)piperidin-1-yl)-5,6,7,8-tetrahydropyrido[3,4-d]pyrimidin-2-yl)oxy)methyl)cyclopropyl)-N,N-dimethylmethanamine] | 7420 nM | 4310 nM
CCc1cccc2cccc(N3CCc4c(nc(OCC5(CN(C)C)CC5)nc4N4CCCC(c5nc(=O)[nH][nH]5)C4)C3)c12 (stereo not shown) [Example 690, 5-(1-(2-((1-((dimethylamino)methyl)cyclopropyl)methoxy)-7-(8-ethylnaphthalen-1-yl)-5,6,7,8-tetrahydropyrido[3,4-d]pyrimidin-4-yl)piperidin-3-yl)-1,2-dihydro-3H-1,2,4-triazol-3-one] | 5440 nM | 1360 nM
CCc1cccc2cccc(N3CCc4c(nc(OCC5(CN(C)C)CC5)nc4NCc4nnc(C5CCOC5)[nH]4)C3)c12 (stereo not shown) [Example 691, 2-((1-((dimethylamino)methyl)cyclopropyl)methoxy)-7-(8-ethylnaphthalen-1-yl)-N-((5-(tetrahydrofuran-3-yl)-4H-1,2,4-triazol-3-yl)methyl)-5,6,7,8-tetrahydropyrido[3,4-d]pyrimidin-4-amine] | 7300 nM | 5300 nM
CCc1cccc2cccc(N3CCc4c(nc(OCC5(CN(C)C)CC5)nc4N4CCCC(c5nccn5C)C4)C3)c12 (stereo not shown) [Example 692, 1-(1-(((7-(8-ethylnaphthalen-1-yl)-4-(3-(1-methyl-1H-imidazol-2-yl)piperidin-1-yl)-5,6,7,8-tetrahydropyrido[3,4-d]pyrimidin-2-yl)oxy)methyl)cyclopropyl)-N,N-dimethylmethanamine] | 16100 nM | 8850 nM
